The series has as its target T1, human TLR7 (Homo sapiens, UniProt Q9NYK1).
T1 construct: HA; host or cells: 293XL-hTLR7-HA (HEK293)
T1 sequence (Q9NYK1 27-1049): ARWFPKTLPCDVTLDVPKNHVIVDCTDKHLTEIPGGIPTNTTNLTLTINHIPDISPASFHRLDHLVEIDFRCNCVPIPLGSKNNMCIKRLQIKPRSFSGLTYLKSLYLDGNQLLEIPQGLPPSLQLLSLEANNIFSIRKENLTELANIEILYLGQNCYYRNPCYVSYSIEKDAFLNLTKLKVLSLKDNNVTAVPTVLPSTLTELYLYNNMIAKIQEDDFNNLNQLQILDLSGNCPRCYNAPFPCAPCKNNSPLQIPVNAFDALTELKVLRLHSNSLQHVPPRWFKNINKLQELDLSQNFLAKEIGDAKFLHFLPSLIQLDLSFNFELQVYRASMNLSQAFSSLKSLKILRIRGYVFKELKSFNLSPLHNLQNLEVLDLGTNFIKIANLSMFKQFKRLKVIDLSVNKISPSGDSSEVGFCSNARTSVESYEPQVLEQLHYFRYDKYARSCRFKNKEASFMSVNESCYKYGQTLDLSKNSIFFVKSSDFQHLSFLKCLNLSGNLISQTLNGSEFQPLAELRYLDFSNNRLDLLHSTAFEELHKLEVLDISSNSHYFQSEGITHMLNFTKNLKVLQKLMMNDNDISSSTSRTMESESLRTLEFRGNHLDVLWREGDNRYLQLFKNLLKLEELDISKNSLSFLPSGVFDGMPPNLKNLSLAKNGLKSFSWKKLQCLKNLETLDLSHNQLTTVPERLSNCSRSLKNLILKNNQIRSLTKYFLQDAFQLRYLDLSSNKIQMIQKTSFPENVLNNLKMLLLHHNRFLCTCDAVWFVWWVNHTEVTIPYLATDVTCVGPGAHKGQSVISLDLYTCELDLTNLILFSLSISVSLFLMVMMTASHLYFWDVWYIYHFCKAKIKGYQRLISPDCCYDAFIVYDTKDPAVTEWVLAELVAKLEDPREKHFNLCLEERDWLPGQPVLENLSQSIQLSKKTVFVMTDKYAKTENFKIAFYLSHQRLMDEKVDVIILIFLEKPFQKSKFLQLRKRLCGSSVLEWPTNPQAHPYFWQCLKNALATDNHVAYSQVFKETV
Put plainly: HEK-TLR7 NF-κB-luciferase reporter, R848 stimulation. Format: cell-based. Particulars: for TLR7-100 nM: averaged NF-κB-Luciferase relative to R848: HEK-TLR7, 100 nM ASO, percentage of R848 without ASO (Alharbi et al., 2020); for TLR7 100 nM: MOE-modified ASO at 100 nM; for TLR7 100 nM / TLR7 500 nM: averaged NF-κB-Luciferase relative to R848 condition; for TLR7 500 nM: MOE-modified ASO at 500 nM.

The record followed here is patent US20240384268A1, “Oligonucleotides” (Hudson Institute of Medical Research, priority 2021, published 2024).

In the oligonucleotide strings, read from the 5' end, every base follows the letter of its sugar. An asterisk marks phosphorothioate; unmarked linkages are phosphodiester. Other units and linkages are bracketed, terminal groups are in braces. A string of capitals states the bases alone. d = 2'-deoxy (DNA); m = 2'-O-methyl

Take “mU*mU*mA*mA*mA*T*A*A*T*C*T*A*G*T*T*mU*mG*mA*mA*mG (UUAAATAATCTAGTTUGAAG; sugars from the 5' end m5 d10 m5, all phosphorothioate, methylation of C not given here) [[CDKN2B-AS1]132]”: the “TLR7-100 nM: averaged NF-κB-Luciferase relative to R848” value stood at 25.66%. Same read-out and setting: the figure for “mU*mC*mU*mG*mG*T*C*C*C*A*T*C*C*C*T*mU*mC*mU*mG*mC (UCUGGTCCCATCCCTUCUGC; antisense; sugars from the 5' end m5 d10 m5, all phosphorothioate, methylation of C not given here) [[LINC-PINT]106]” is 29.42%; for “mA*mG*mC*mC*mG*A*A*C*A*G*A*A*G*G*A*mG*mC*mG*mU*mC (AGCCGAACAGAAGGAGCGUC; sugars from the 5' end m5 d10 m5, all phosphorothioate, methylation of C not given here) [[LINC-PINT]587 KL]” it is 27.70%. With “mA*mA*mU*mU*mU*A*A*A*G*C*A*T*G*A*A*mU*mA*mU*mU*mA (mA*mA*mU*mU*mU*dA*dA*dA*dG*dC*dA*dT*dG*dA*dA*mU*mA*mU*mU*mA) [[CDKN2B-AS1]645]”, the “TLR7-100 nM: averaged NF-κB-Luciferase relative to R848” value is listed as 46.75%. On to “mG*mA*mU*mU*mA*A*A*A*C*A*G*A*T*T*A*mA*mU*mA*mC*mA (mG*mA*mU*mU*mA*dA*dA*dA*dC*dA*dG*dA*dT*dT*dA*mA*mU*mA*mC*mA) [[CDKN2B-AS1]1773]”, for which the “TLR7-100 nM: averaged NF-κB-Luciferase relative to R848” value came to 21.92%.

For “mU*mG*mA*mC*mA*T*T*T*C*G*T*G*G*C*T*mC*mC*mU*mA*mC (mU*mG*mA*mC*mA*dT*dT*dT*dC*dG*dT*dG*dG*dC*dT*mC*mC*mU*mA*mC; antisense) [[LINC-PINT]523 KL]”, the “TLR7-100 nM: averaged NF-κB-Luciferase relative to R848” value is given as 33.56%.

Regarding “TCCGGCCTCGGAAGCTCTCT (antisense; 2'-MOE modified, pattern not given here) [MB21D1-168 MOE]”, the “TLR7 100 nM” value was found to be 0.440 and the “TLR7 500 nM” value is recorded as 0.166.

For the substance “mC*mC*mU*mA*mG*A*A*A*G*A*A*G*C*A*A*mA*mG*mA*mU*mU (mC*mC*mU*mA*mG*dA*dA*dA*dG*dA*dA*dG*dC*dA*dA*mA*mG*mA*mU*mU) [[CDKN2B-AS1]1522]”, the “TLR7-100 nM: averaged NF-κB-Luciferase relative to R848” value is 57.20%. On the same count and under the same terms, in the case of “mA*mA*mU*mA*mU*C*T*G*C*T*G*C*C*C*A*mC*mC*mU*mU*mC (mA*mA*mU*mA*mU*dC*dT*dG*dC*dT*dG*dC*dC*dC*dA*mC*mC*mU*mU*mC; antisense) [[CDKN2B-AS1]832]” it was 43.66%.

With “ATGCCATCCACTTGATAGGC (antisense; 2'-MOE modified, pattern not given here) [EGFR-2874 MOE]”, the “TLR7 100 nM” value is recorded as 0.668 and the “TLR7 500 nM” value is on record as 0.390.

Regarding “mG*mA*mU*mG*mG*T*T*C*C*A*G*T*C*C*C*mU*mC*mU*mU*mC (GAUGGTTCCAGTCCCUCUUC; antisense; sugars from the 5' end m5 d10 m5, all phosphorothioate, methylation of C not given here) [[LINC-PINT]1497.1]”, the “TLR7-100 nM: averaged NF-κB-Luciferase relative to R848” value was found to be 22.32%. Still for that read-out and setting: in the case of “mU*mU*mG*mG*mC*C*T*G*T*G*G*A*T*G*C*mU*mU*mU*mG*mU (mU*mU*mG*mG*mC*dC*dT*dG*dT*dG*dG*dA*dT*dG*dC*mU*mU*mU*mG*mU) [[LINC-PINT]2673.1]” it was 21.43%. For “GCTGACAAAGATTCACTGGT (antisense; 2'-MOE modified, pattern not given here) [HPRT-1353 MOE]”, the “TLR7 100 nM” value came out at 0.375 and the “TLR7 500 nM” value came to 0.190.

“mU*mG*mU*mU*mU*C*C*C*C*G*G*A*G*A*G*mC*mA*mA*mU*mG (UGUUUCCCCGGAGAGCAAUG; antisense; sugars from the 5' end m5 d10 m5, all phosphorothioate, methylation of C not given here) [[LINC-PINT]501 KL]”: the “TLR7-100 nM: averaged NF-κB-Luciferase relative to R848” value came to 30.90%. For the substance “mU*mC*mU*mC*mU*C*T*G*G*T*C*C*C*A*T*mC*mC*mC*mU*mU (mU*mC*mU*mC*mU*dC*dT*dG*dG*dT*dC*dC*dC*dA*dT*mC*mC*mC*mU*mU; antisense) [[LINC-PINT]110]”, the “TLR7-100 nM: averaged NF-κB-Luciferase relative to R848” value is 43.82%. Regarding “mU*mC*mC*mC*mA*A*C*T*C*T*T*C*T*A*A*mC*mU*mC*mG*mU (mU*mC*mC*mC*mA*dA*dC*dT*dC*dT*dT*dC*dT*dA*dA*mC*mU*mC*mG*mU; antisense) [[LINC-PINT]1284 KL]”, the “TLR7-100 nM: averaged NF-κB-Luciferase relative to R848” value is 40.79%. For the substance “GCCCATCCATGAGGTCCTGG (antisense; 2'-MOE modified, pattern not given here) [CTNN2B-2545 MOE]”, the “TLR7 100 nM” value is 0.340 and the “TLR7 500 nM” value is listed as 0.124. For “mC*mA*mU*mC*mC*C*T*T*C*T*G*C*T*G*C*mC*mA*mA*mG*mC (mC*mA*mU*mC*mC*dC*dT*dT*dC*dT*dG*dC*dT*dG*dC*mC*mA*mA*mG*mC; antisense) [[LINC-PINT]98]”, the “TLR7-100 nM: averaged NF-κB-Luciferase relative to R848” value came out at 54.34%.

In the case of “mC*mC*mU*mU*mC*T*C*T*C*T*G*GT*C*C*mC*mA*mU*mC*mC (CCUUCTCTCTGGTCCCAUCC; antisense; chemistry not fully specified) [[LINC-PINT]113]”, the “TLR7-100 nM: averaged NF-κB-Luciferase relative to R848” value came to 60.90%. On the same count and under the same terms, in the case of “mG*mU*mC*mC*mC*A*G*G*C*C*T*C*C*A*G*mU*mG*mU*mC*mU (mG*mU*mC*mC*mC*dA*dG*dG*dC*dC*dT*dC*dC*dA*dG*mU*mG*mU*mC*mU; antisense) [[CDKN2B-AS1]2223]” it was 19.01%.
